Square brackets hold non-standard residues; d marks the D form. Peptide text beside a SMILES is read from it. * marks the point of attachment. ξ: configuration not given here. Butanoyl(3S-cHex) = C[C@@H](CC(=O)*)C1CCCCC1; Propanoyl(3-cHex) = O=C(CCC1CCCCC1)*; Thr(3ξ) = CC(O)[C@H](N)C(=O)O; Leu(ol) = CC(C)C[C@H](N)CO; Pip = O=C(O)[C@@H]1CCCCN1; NHPr = CCCN*
molecular target: T1, DR(αβ1*0401) molecules (DR4) (Homo sapiens, UniProt P01903+P01911, A100K/A169T/F76Y/I96L/K127E/L162R/M171V/N62H/P40V/Q125Y/R42H/S133A/S149N/S66Y/V115G/V209L/W38E); experiment: Competitive Binding for DR4 (Competition Capture ELISA); details: competition with 50 nM biotinylated ML37-49 peptide for immunoaffinity purified DRB1*0401, pH 5.5, overnight at 37° C.
T1 construct: made in house
Procedure: Competitive Binding for DR4 (Competition Capture ELISA)
DR(αβ1*0401) molecules are affinity purified with L243 monoclonal antibody (hybridoma obtained from ATCC) using a modification of a published procedure (Gorga, J. C., et al., 1991. Res. Immunol. 142:401-407.). Duplicate samples of immunoaffinity purified DRB1*0401 molecules (0.5 μg/well) are incubated overnight at 37° C. with 50 nM biotinylated ML37-49 peptide in the presence or absence of 1 nM to 100 μM competitor peptides in 96-well polypropylene microtiter plates (Costar, Cambridge, Mass.). All dilutions are made in phosphate buffered saline, pH 5.5 containing 1% octaglucoside (Boehringher Mannheim). LB3.1 antibody (obtained from J. Strominger, Cambridge, Mass.) is plated onto flat-bottom 96-well polystyrene microtiter plates (Falcon, Becton-Dickinson, Mountainview, Calif.) in 0.1 M carbonate coating buffer, pH 9.6 overnight at 4° C. Antibody coated microtiter plates are blocked with 1% Carnation nonfat milk for 1 hr at room temperature. The plates are washed 3 times with PBS containing 0.05% Tween 20 (Biorad, Hercules, Calif.). The class II/peptide mixtures are added, incubated for 1 hr at 37° C., and washed as described above. Extravidin conjugated horseradish peroxidase (1:1000, Sigma Chemicals) is added to the wells and incubated for 30-60 min at 37° C. The plates are washed again, then incubated with o-phenylenediamine dihydrochloride and H2O2 (Sigma Chemicals, St. Louis, Mo.) in 0.5 M phosphate-citrate buffer, pH 5.0. The absorbance of each well is read at 450 nm.

Q: Which IC50 does the source give for CCCNC(=O)[C@@H](NC(=O)[C@@H]1CCCN1C(=O)[C@H](CC(=O)O)NC(=O)[C@@H]1CCCCN1C(=O)[C@@H](NC(=O)C[C@H](C)C1CCCCC1)C(C)C)C(C)O (stereo partly drawn) [Example 1, (S)-CBA-Val-Pec-Asp-Pro-Thr-propylamide] ({Butanoyl(3S-cHex)}-V[Pip]DP[Thr(3ξ)]-NHPr) here?
A: Its IC50 is 30 nM.

Q: How did the IC50 turn out when CCCNC(=O)[C@@H](NC(=O)[C@@H]1CCCN1C(=O)[C@H](CC(=O)O)NC(=O)[C@@H]1CCCCN1C(=O)[C@H](CCCCN)NC(=O)CCC1CCCCC1)[C@@H](C)O [Example 3, CPA-Lys-Pec-Asp-Pro-Thr-propylamide] ({Propanoyl(3-cHex)}-K[Pip]DPT-NHPr) was run?
A: Its IC50 is 259 nM.

Q: CC(C)C[C@@H](CO)NC(=O)[C@@H](NC(=O)[C@@H]1CCCN1C(=O)[C@H](CC(=O)O)NC(=O)[C@@H]1CCCCN1C(=O)[C@H](CCCCN)NC(=O)C[C@H](C)C1CCCCC1)[C@@H](C)O [Example 4, (S)-CBA-Lys-Pec-Asp-Pro-Thr-leucinol] ({Butanoyl(3S-cHex)}-K[Pip]DPT[Leu(ol)]) was tested. Which IC50 did it give?
A: The IC50 was 116 nM.

Q: How did the IC50 turn out when “(S)-CBA-Lys-Pec-Asp-Pro-Thr-propylamide [Example 2]” was run?
A: The IC50 was 289 nM.
